Measurements from ChEMBL document CHEMBL3580659, “One-pot multicomponent synthesis of indole incorporated thiazolylcoumarins and their antibacterial, anticancer and DNA cleavage studies” (2015).
The source made the active and inactive calls. No cut-off for these calls is given here.

Assays:
OVCAR-5 = assay: Cytotoxicity against human OVCAR5 cells assessed as cell growth level at 1 uM after 48 hrs by sulforhodamine B assay; type: functional
DU-145 = assay: Cytotoxicity against human DU145 cells assessed as cell growth level at 10 uM after 48 hrs by sulforhodamine B assay; type: functional
UACC-257 = assay: Cytotoxicity against human UACC257 cells after 48 hrs by sulforhodamine B assay; type: functional; settings: UACC-257, 48 h
HCC 2998 = assay: Cytotoxicity against human HCC2998 cells assessed as cell growth level at 100 nM after 48 hrs by sulforhodamine B assay; type: functional
OVCAR-4 = assay: Cytotoxicity against human OVCAR4 cells assessed as cell growth level at 10 nM after 48 hrs by sulforhodamine B assay; type: functional
MCF7 = assay: Cytotoxicity against human MCF7 cells after 48 hrs by sulforhodamine B assay; type: functional; settings: MCF7, 48 h
SK-MEL-5 [1] = assay: Cytotoxicity against human SK-MEL-5 cells assessed as cell growth level at 100 uM after 48 hrs by sulforhodamine B assay; type: functional
HOP-92 = assay: Cytotoxicity against human HOP92 cells assessed as cell growth level at 100 nM after 48 hrs by sulforhodamine B assay; type: functional
Malme-3M [2] = assay: Cytotoxicity against human MALME-3M cells assessed as cell growth level at 10 uM after 48 hrs by sulforhodamine B assay; type: functional
SN12C = assay: Cytotoxicity against human SN12C cells assessed as cell growth level at 100 nM after 48 hrs by sulforhodamine B assay; type: functional
[3] = Cytotoxicity against human NCI-ADR-RES cells assessed as cell growth level at 10 nM after 48 hrs by sulforhodamine B assay; type: functional
MDA-MB-231 = assay: Cytotoxicity against human MDA-MB-231/ATCC cells assessed as cell growth level at 1 uM after 48 hrs by sulforhodamine B assay; type: functional
NCI-H460 [4] = assay: Cytotoxicity against human NCI-H460 cells assessed as cell growth level at 10 uM after 48 hrs by sulforhodamine B assay; type: functional
SR = assay: Cytotoxicity against human SR cells assessed as cell growth level at 10 nM after 48 hrs by sulforhodamine B assay; type: functional
SF-268 [5] = assay: Cytotoxicity against human SF268 cells assessed as cell growth level at 1 uM after 48 hrs by sulforhodamine B assay; type: functional
NCI-H460 [6] = assay: Cytotoxicity against human NCI-H460 cells assessed as cell growth level at 10 nM after 48 hrs by sulforhodamine B assay; type: functional
HCT-15 = assay: Cytotoxicity against human HCT15 cells assessed as cell growth level at 10 uM after 48 hrs by sulforhodamine B assay; type: functional
NCI-H226 [7] = assay: Cytotoxicity against human NCI-H226 cells assessed as cell growth level at 10 uM after 48 hrs by sulforhodamine B assay; type: functional
NCI-H226 [8] = assay: Cytotoxicity against human NCI-H226 cells assessed as cell growth level at 100 uM after 48 hrs by sulforhodamine B assay; type: functional
SK-MEL-2 [9] = assay: Cytotoxicity against human SK-MEL-2 cells assessed as cell growth level at 100 uM after 48 hrs by sulforhodamine B assay; type: functional
SF-295 = assay: Cytotoxicity against human SF295 cells assessed as cell growth level at 10 uM after 48 hrs by sulforhodamine B assay; type: functional
SF-268 [10] = assay: Cytotoxicity against human SF268 cells assessed as cell growth level at 10 nM after 48 hrs by sulforhodamine B assay; type: functional
Escherichia coli = assay: Induction of DNA cleavage of Escherichia coli pUC18 plasmid DNA at 50 ug/ml after 2 hrs by agarose gel elctrophoresis method
OVCAR-8 [11] = assay: Cytotoxicity against human OVCAR8 cells assessed as cell growth level at 10 uM after 48 hrs by sulforhodamine B assay; type: functional
HL-60(TB) [12] = assay: Cytotoxicity against human HL-60(TB) cells assessed as cell growth level at 1 uM after 48 hrs by sulforhodamine B assay; type: functional
CAKI-1 = assay: Cytotoxicity against human CAKI-1 cells assessed as cell growth level at 100 nM after 48 hrs by sulforhodamine B assay; type: functional
Malme-3M [13] = assay: Cytotoxicity against human MALME-3M cells after 48 hrs by sulforhodamine B assay; type: functional
[14] = Cytotoxicity against human NCI-ADR-RES cells assessed as cell growth level at 100 uM after 48 hrs by sulforhodamine B assay; type: functional
COLO 205 = assay: Cytotoxicity against human COLO205 cells assessed as cell growth level at 100 nM after 48 hrs by sulforhodamine B assay; type: functional
NCI-H522 = assay: Cytotoxicity against human NCI-H522 cells assessed as cell growth level at 10 nM after 48 hrs by sulforhodamine B assay; type: functional
IGROV-1 = assay: Cytotoxicity against human IGROV1 cells assessed as cell growth level at 100 uM after 48 hrs by sulforhodamine B assay; type: functional
UACC-62 = assay: Cytotoxicity against human UACC62 cells assessed as cell growth level at 100 uM after 48 hrs by sulforhodamine B assay; type: functional
SK-MEL-5 [15] = assay: Cytotoxicity against human SK-MEL-5 cells assessed as cell growth level at 100 nM after 48 hrs by sulforhodamine B assay; type: functional
HL-60(TB) [16] = assay: Cytotoxicity against human HL-60(TB) cells assessed as cell growth level at 10 uM after 48 hrs by sulforhodamine B assay; type: functional
LOX IMVI [17] = assay: Cytotoxicity against human LOXIMVI cells assessed as cell growth level at 10 uM after 48 hrs by sulforhodamine B assay; type: functional
SNB-75 = assay: Cytotoxicity against human SNB75 cells assessed as cell growth level at 10 uM after 48 hrs by sulforhodamine B assay; type: functional
OVCAR-8 [18] = assay: Cytotoxicity against human OVCAR8 cells assessed as cell growth level at 10 nM after 48 hrs by sulforhodamine B assay; type: functional
CCRF-CEM = assay: Cytotoxicity against human CCRF-CEM cells assessed as cell growth level at 100 uM after 48 hrs by sulforhodamine B assay; type: functional
LOX IMVI [19] = assay: Cytotoxicity against human LOXIMVI cells assessed as cell growth level at 100 uM after 48 hrs by sulforhodamine B assay; type: functional
SF-268 [20] = assay: Cytotoxicity against human SF268 cells assessed as cell growth level at 100 nM after 48 hrs by sulforhodamine B assay; type: functional
SK-MEL-2 [21] = assay: Cytotoxicity against human SK-MEL-2 cells assessed as cell growth level at 10 nM after 48 hrs by sulforhodamine B assay; type: functional
[22] = read-out: LC50 (the source's name)
[23] = read-out: pLC50 (the source's name) (converted)

Molecule `O=c1oc2ccccc2cc1-c1csc(N/N=C/c2c[nH]c3ccccc23)n1` has an Activity (OVCAR-5) of 87%, an Activity (DU-145) of -36.09% and a GI50 (UACC-257; read-out: GI50) of 2.15 µM. It also gave a CC50 (UACC-257; [22]) of over 100 µM, a TGI (UACC-257; read-out: TGI) of 5.63 µM and a GI50 (UACC-257; read-out: pGI50 (converted)) of 2.14 µM. The CC50 (UACC-257; [23]) was over 100 µM, the TGI (UACC-257; read-out: pTGI (converted)) was 5.62 µM and the Activity (HCC 2998) was 97%. It also gave an Activity (OVCAR-4) of 90%, a GI50 (MCF7; read-out: GI50) of 2.4 µM and a CC50 (MCF7; [22]) of over 100 µM. The TGI (MCF7; read-out: TGI) was 15.5 µM, the GI50 (MCF7; read-out: pGI50 (converted)) was 2.4 µM and the CC50 (MCF7; [23]) was over 100 µM. The TGI (MCF7; read-out: pTGI (converted)) was 15.5 µM, the Activity (SK-MEL-5 [1]) was -46% and the Activity (HOP-92) was 94%. For the same molecule, the Activity (Malme-3M [2]) was -10.02%, the Activity (SN12C) was 90% and the Activity [3] was 105%. It also gave an Activity (MDA-MB-231) of 92%, an Activity (NCI-H460 [4]) of 5.79% and an Activity (SR) of 94%. It also gave an Activity (SF-268 [5]) of 86%, an Activity (NCI-H460 [6]) of 79% and an Activity (HCT-15) of 12.32%. For the same molecule, the Activity (NCI-H226 [7]) was 42.82%, the Activity (NCI-H226 [8]) was -31% and the Activity (SK-MEL-2 [9]) was -93%. The Activity (SF-295) was -25.04%, the Activity (SF-268 [10]) was 96% and the Activity (Escherichia coli) was “Active”. For the same molecule, the Activity (OVCAR-8 [11]) was 2.99%, the Activity (HL-60(TB) [12]) was 26% and the Activity (CAKI-1) was 88%. It also gave a GI50 (Malme-3M [13]; read-out: GI50) of 1.59 µM, a CC50 (Malme-3M [13]; [22]) of over 100 µM and a TGI (Malme-3M [13]; read-out: TGI) of 4.17 µM. It also gave a GI50 (Malme-3M [13]; read-out: pGI50 (converted)) of 1.58 µM, a CC50 (Malme-3M [13]; [23]) of over 100 µM and a TGI (Malme-3M [13]; read-out: pTGI (converted)) of 4.17 µM. It also gave an Activity [14] of 8%, an Activity (COLO 205) of 115% and an Activity (NCI-H522) of 105%. For the same molecule, the Activity (IGROV-1) was -71%, the Activity (UACC-62) was -27% and the Activity (SK-MEL-5 [15]) was 88%. It also gave an Activity (HL-60(TB) [16]) of -28.24%, an Activity (LOX IMVI [17]) of -52.19% and an Activity (SNB-75) of 15.44%. The Activity (OVCAR-8 [18]) was 104%, the Activity (CCRF-CEM) was -39% and the Activity (LOX IMVI [19]) was -45%. It also gave an Activity (SF-268 [20]) of 88% and an Activity (SK-MEL-2 [21]) of 98%.
